Results taken from PubChem BioAssay (NCI).
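In this assay, cells in 96-well plates receive the compound at five concentrations for 48 hours. Endpoints are linearly interpolated between the surrounding concentrations. GI50: concentration for 50% inhibition of growth. TGI marks complete inhibition of growth.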

Columns and labels:
Assay in all cases: growth of human tumour cells (NCI), 48 h
SF-268 CNS = system: SF-268 CNS
SK-MEL-5 melanoma = system: SK-MEL-5 melanoma
DU-145 prostate = system: DU-145 prostate
BT-549 breast = system: BT-549 breast
SR leukemia = system: SR leukemia
NCI/ADR-RES ovarian = system: NCI/ADR-RES ovarian
OVCAR-5 ovarian = system: OVCAR-5 ovarian
SK-MEL-2 melanoma = system: SK-MEL-2 melanoma
MALME-3M melanoma = system: MALME-3M melanoma
SF-539 CNS = system: SF-539 CNS
SW-620 colon = system: SW-620 colon
IGROV1 ovarian = system: IGROV1 ovarian
COLO 205 colon = system: COLO 205 colon
HS 578T breast = system: HS 578T breast
HCT-15 colon = system: HCT-15 colon
SN12C renal = system: SN12C renal
UO-31 renal = system: UO-31 renal
CCRF-CEM leukemia = system: CCRF-CEM leukemia
T-47D breast = system: T-47D breast
OVCAR-4 ovarian = system: OVCAR-4 ovarian
HOP-62 NSCLC = system: HOP-62 NSCLC
HL-60(TB) leukemia = system: HL-60(TB) leukemia
NCI-H460 lung = system: NCI-H460 lung
NCI-H522 lung = system: NCI-H522 lung
EKVX NSCLC = system: EKVX NSCLC
HOP-92 NSCLC = system: HOP-92 NSCLC
UACC-62 melanoma = system: UACC-62 melanoma
TK-10 renal = system: TK-10 renal
SF-295 CNS = system: SF-295 CNS
RXF 393 renal = system: RXF 393 renal
A498 renal = system: A498 renal
ACHN renal = system: ACHN renal
MOLT-4 leukemia = system: MOLT-4 leukemia
SNB-19 CNS = system: SNB-19 CNS
KM12 colon = system: KM12 colon
786-0 renal = system: 786-0 renal
OVCAR-8 ovarian = system: OVCAR-8 ovarian
CAKI-1 renal = system: CAKI-1 renal
RPMI-8226 leukemia = system: RPMI-8226 leukemia
SK-MEL-28 melanoma = system: SK-MEL-28 melanoma
A549 NSCLC = system: A549 NSCLC
U251 CNS = system: U251 CNS
PC-3 prostate = system: PC-3 prostate
NCI-H226 lung = system: NCI-H226 lung
HCT-116 colon = system: HCT-116 colon
SNB-75 CNS = system: SNB-75 CNS
HT29 colon = system: HT29 colon
M14 melanoma = system: M14 melanoma
UACC-257 melanoma = system: UACC-257 melanoma
SK-OV-3 ovarian = system: SK-OV-3 ovarian
MDA-MB-231 breast = system: MDA-MB-231 breast
LOX IMVI melanoma = system: LOX IMVI melanoma
HCC-2998 colon = system: HCC-2998 colon
MDA-MB-435 = system: MDA-MB-435
NCI-H23 lung = system: NCI-H23 lung

CCOc1ccccc1NC1=C(Cl)C(=O)c2nc(C)ccc2C1=O
GI50 (SF-268 CNS): 1470 nM
TGI (SF-268 CNS): 2940 nM
GI50 (SK-MEL-5 melanoma): 1740 nM
TGI (SK-MEL-5 melanoma): 3130 nM
GI50 (DU-145 prostate): 1630 nM
TGI (DU-145 prostate): 2990 nM
GI50 (BT-549 breast): 1520 nM
TGI (BT-549 breast): 2880 nM
GI50 (SR leukemia): 543 nM
TGI (SR leukemia): 4140 nM
GI50 (NCI/ADR-RES ovarian): 1890 nM
TGI (NCI/ADR-RES ovarian): 5090 nM
GI50 (OVCAR-5 ovarian): 1840 nM
TGI (OVCAR-5 ovarian): 3330 nM
GI50 (SK-MEL-2 melanoma): 1440 nM
TGI (SK-MEL-2 melanoma): 2860 nM
GI50 (MALME-3M melanoma): 1360 nM
TGI (MALME-3M melanoma): 2770 nM
GI50 (SF-539 CNS): 1670 nM
TGI (SF-539 CNS): 3090 nM
GI50 (SW-620 colon): 1600 nM
TGI (SW-620 colon): 3210 nM
GI50 (IGROV1 ovarian): 1370 nM
TGI (IGROV1 ovarian): 2820 nM
GI50 (COLO 205 colon): 1730 nM
TGI (COLO 205 colon): 3660 nM
GI50 (HS 578T breast): 2110 nM
TGI (HS 578T breast): 5250 nM
GI50 (HCT-15 colon): 1130 nM
TGI (HCT-15 colon): 2550 nM
GI50 (SN12C renal): 1590 nM
TGI (SN12C renal): 3040 nM
GI50 (UO-31 renal): 1400 nM
TGI (UO-31 renal): 2710 nM
GI50 (CCRF-CEM leukemia): 1410 nM
TGI (CCRF-CEM leukemia): > 100000 nM
GI50 (T-47D breast): 467 nM
TGI (T-47D breast): 3170 nM
GI50 (OVCAR-4 ovarian): 1000 nM
TGI (OVCAR-4 ovarian): 2220 nM
GI50 (HOP-62 NSCLC): 2270 nM
TGI (HOP-62 NSCLC): 6740 nM
GI50 (HL-60(TB) leukemia): 1030 nM
TGI (HL-60(TB) leukemia): 2920 nM
GI50 (NCI-H460 lung): 3020 nM
TGI (NCI-H460 lung): 11400 nM
GI50 (NCI-H522 lung): 1740 nM
TGI (NCI-H522 lung): 3280 nM
GI50 (EKVX NSCLC): 1560 nM
TGI (EKVX NSCLC): 2980 nM
GI50 (HOP-92 NSCLC): 1800 nM
TGI (HOP-92 NSCLC): 3330 nM
GI50 (UACC-62 melanoma): 1800 nM
TGI (UACC-62 melanoma): 3360 nM
GI50 (TK-10 renal): 2250 nM
TGI (TK-10 renal): 3720 nM
GI50 (SF-295 CNS): 2030 nM
TGI (SF-295 CNS): 4200 nM
GI50 (RXF 393 renal): 1440 nM
TGI (RXF 393 renal): 2780 nM
GI50 (A498 renal): 2650 nM
TGI (A498 renal): 10800 nM
GI50 (ACHN renal): 1350 nM
TGI (ACHN renal): 2690 nM
GI50 (MOLT-4 leukemia): 2030 nM
TGI (MOLT-4 leukemia): 8090 nM
GI50 (SNB-19 CNS): 1800 nM
TGI (SNB-19 CNS): 3970 nM
GI50 (KM12 colon): 1410 nM
TGI (KM12 colon): 2890 nM
GI50 (786-0 renal): 1800 nM
TGI (786-0 renal): 3250 nM
GI50 (OVCAR-8 ovarian): 1490 nM
TGI (OVCAR-8 ovarian): 2920 nM
GI50 (CAKI-1 renal): 1450 nM
TGI (CAKI-1 renal): 2840 nM
GI50 (RPMI-8226 leukemia): 1200 nM
TGI (RPMI-8226 leukemia): 4710 nM
GI50 (SK-MEL-28 melanoma): 1710 nM
TGI (SK-MEL-28 melanoma): 3140 nM
GI50 (A549 NSCLC): 2060 nM
TGI (A549 NSCLC): 4650 nM
GI50 (U251 CNS): 1700 nM
TGI (U251 CNS): 3270 nM
GI50 (PC-3 prostate): 1260 nM
TGI (PC-3 prostate): 2770 nM
GI50 (NCI-H226 lung): 1780 nM
TGI (NCI-H226 lung): 4240 nM
GI50 (HCT-116 colon): 1050 nM
TGI (HCT-116 colon): 2310 nM
GI50 (SNB-75 CNS): 1630 nM
TGI (SNB-75 CNS): 3430 nM
GI50 (HT29 colon): 3400 nM
TGI (HT29 colon): 15200 nM
GI50 (M14 melanoma): 1460 nM
TGI (M14 melanoma): 2830 nM
GI50 (UACC-257 melanoma): 1280 nM
TGI (UACC-257 melanoma): 2610 nM
GI50 (SK-OV-3 ovarian): 13500 nM
TGI (SK-OV-3 ovarian): 27100 nM
GI50 (MDA-MB-231 breast): 1070 nM
TGI (MDA-MB-231 breast): 2380 nM
GI50 (LOX IMVI melanoma): 839 nM
TGI (LOX IMVI melanoma): 2220 nM
GI50 (HCC-2998 colon): 1940 nM
TGI (HCC-2998 colon): 3520 nM
GI50 (MDA-MB-435): 266 nM
TGI (MDA-MB-435): 671 nM
GI50 (NCI-H23 lung): 1440 nM
TGI (NCI-H23 lung): 3550 nM
